Reference: patent US9738932B2, “Biomarkers for cardiovascular side-effects induced by cox-2 inhibitory compounds” (FIRALIS SAS, priority 2005, dated 2017)

Tested on: mRNA expression in cardiovascular tissues
Test: Affymetrix GeneChip mRNA expression profiling of monkey tissues (iliac vein, pulmonary vein, aorta, carotid artery, heart) after two-week oral-gavage treatment
Details: iliac vein
[1] = group average (Vioxx without A60055)

CS(=O)(=O)c1ccc(C2=C(c3ccccc3)C(=O)OC2)cc1 [Vioxx®, rofecoxib]
HFE (211329_x_at) fold change vs control (animal A60055): 1.8 fold | HFE (211332_x_at) fold change vs control (animal A60055): 1.6 fold | HFE (211863_x_at) fold change vs control (animal A60055): 1.8 fold | HFE (211866_x_at) fold change vs control (animal A60055): 1.6 fold | HHL (203020_at) fold change vs control (animal A60055): 2.2 fold | HLA-A (211528_x_at) fold change vs control (animal A60055): 2.4 fold | HLA-A (211529_x_at) fold change vs control (animal A60055): 2.1 fold | HLA-A (211530_x_at) fold change vs control (animal A60055): 2.3 fold | HLA-A (215313_x_at) fold change vs control (animal A60055): 1.8 fold | HLA-B (208729_x_at) fold change vs control (animal A60055): 1.8 fold | HLA-B (209140_x_at) fold change vs control (animal A60055): 1.9 fold | HLA-B (211911_x_at) fold change vs control (animal A60055): 1.8 fold | HLA-C (208812_x_at) fold change vs control (animal A60055): 1.8 fold | HLA-C (214459_x_at) fold change vs control (animal A60055): 2.4 fold | HLA-C (216526_x_at) fold change vs control (animal A60055): 2.0 fold | HLA-DMA (217478_s_at) fold change vs control (animal A60055): 2.9 fold | HLA-DMB (203932_at) fold change vs control (animal A60055): 1.5 fold | HLA-DQA1 (212671_s_at) fold change vs control (animal A60055): 8.2 fold | HLA-DQB1 (209823_x_at) fold change vs control (animal A60055): 4.3 fold | HLA-DQB1 (211654_x_at) fold change vs control (animal A60055): 7.7 fold | HLA-DQB1 (211656_x_at) fold change vs control (animal A60055): 4.1 fold | HLA-DQB2 (212998_x_at) fold change vs control (animal A60055): 10.8 fold | HLA-DRA (208894_at) fold change vs control (animal A60055): 2.3 fold | HLA-DRA (210982_s_at) fold change vs control (animal A60055): 2.1 fold | HLA-DRB1 (215193_x_at) fold change vs control (animal A60055): 2.9 fold | HLA-DRB3 (209312_x_at) fold change vs control (animal A60055): 1.9 fold | HLA-DRB6 (217362_x_at) fold change vs control (animal A60055): 2.2 fold | HLA-E (200905_x_at) fold change vs control (animal A60055): 1.6 fold | HLA-E (217456_x_at) fold change vs control (animal A60055): 1.8 fold | HLA-F (204806_x_at) fold change vs control (animal A60055): 2.1 fold | HLA-F (221875_x_at) fold change vs control (animal A60055): 2.3 fold | ICAM1 (202638_s_at) fold change vs control (animal A60055): 1.6 fold | ICAM1 (215485_s_at) fold change vs control (animal A60055): 2.1 fold | ICSBP1 (204057_at) fold change vs control (animal A60055): 2.2 fold | IFI27 (202411_at) fold change vs control (animal A60055): 20.8 fold | IFI30 (201422_at) fold change vs control (animal A60055): 2.1 fold | IFI44 (214453_s_at) fold change vs control (animal A60055): 8.2 fold | IFIT1 (203153_at) fold change vs control (animal A60055): 5.0 fold | IFIT2 (217502_at) fold change vs control (animal A60055): 4.7 fold | IFIT4 (204747_at) fold change vs control (animal A60055): 1.6 fold | IFITM2 (201315_x_at) fold change vs control (animal A60055): 1.9 fold | IFITM3 (212203_x_at) fold change vs control (animal A60055): 1.6 fold | IGF1 (209541_at) fold change vs control (animal A60055): 1.8 fold | IGFBP4 (201508_at) fold change vs control (animal A60055): 1.7 fold | IL1A (208200_at) fold change vs control (animal A60055): 2.2 fold | IL2RG (204116_at) fold change vs control (animal A60055): 2.4 fold | IL27RA (205926_at) fold change vs control (animal A60055): 2.2 fold | INDO (210029_at) fold change vs control (animal A60055): 6.5 fold | INPP5D (203332_s_at) fold change vs control (animal A60055): 1.7 fold | IRF1 (202531_at) fold change vs control (animal A60055): 3.9 fold | IRF7 (208436_s_at) fold change vs control (animal A60055): 3.4 fold | ISGF3G (203882_at) fold change vs control (animal A60055): 3.1 fold | ITGB2 (202803_s_at) fold change vs control (animal A60055): 1.7 fold | JAK1 (214377_s_at) fold change vs control (animal A60055): 2.1 fold | KLKB1 (206541_at) fold change vs control (animal A60055): 2.2 fold | LAIR1 (208071_s_at) fold change vs control (animal A60055): 3.5 fold | LCK (204890_s_at) fold change vs control (animal A60055): 2.2 fold | LCP2 (205270_s_at) fold change vs control (animal A60055): 1.7 fold | LILRB1 (207857_at) fold change vs control (animal A60055): 2.1 fold | LILRB1 (211100_x_at) fold change vs control (animal A60055): 1.8 fold | LILRB3 (208594_x_at) fold change vs control (animal A60055): 1.7 fold | LILRB3 (210225_x_at) fold change vs control (animal A60055): 2.5 fold | LRMP (204674_at) fold change vs control (animal A60055): 2.6 fold | LY86 (205859_at) fold change vs control (animal A60055): 1.8 fold | LY96 (206584_at) fold change vs control (animal A60055): 1.8 fold | LYN (210754_s_at) fold change vs control (animal A60055): 1.7 fold | MAF (209348_s_at) fold change vs control (animal A60055): 1.7 fold | PCOLCE (202465_at) fold change vs control (animal A60055): 2.2 fold | PLA2G4C (209785_s_at) fold change vs control (animal A60055): 3.3 fold | PLCL2 (216217_at) fold change vs control (animal A60055): 1.7 fold | PLSCR1 (202446_s_at) fold change vs control (animal A60055): 2.1 fold | PRC1 (218009_s_at) fold change vs control (animal A60055): 2.0 fold | PRG1 (201858_s_at) fold change vs control (animal A60055): 1.8 fold | PRG1 (201859_at) fold change vs control (animal A60055): 1.5 fold | PTPN22 (206060_s_at) fold change vs control (animal A60055): 2.5 fold | PTPRC (207238_s_at) fold change vs control (animal A60055): 1.8 fold | SOCS3 (206360_s_at) fold change vs control (animal A60055): 1.8 fold | STAT1 (209969_s_at) fold change vs control (animal A60055): 13.5 fold | STAT1 (AFFX-HUMISGF3A/M97935_5_at) fold change vs control (animal A60055): 4.3 fold | STAT1 (AFFX-HUMISGF3A/M97935_MA_at) fold change vs control (animal A60055): 5.3 fold | STAT1 (AFFX-HUMISGF3A/M97935_MB_at) fold change vs control (animal A60055): 7.1 fold | TAPBP (208829_at) fold change vs control (animal A60055): 1.6 fold | TCTEL1 (201999_s_at) fold change vs control (animal A60055): 1.7 fold | TLR1 (210176_at) fold change vs control (animal A60055): 1.7 fold | TLR2 (204924_at) fold change vs control (animal A60055): 1.7 fold | TNFAIP3 (202643_s_at) fold change vs control (animal A60055): 2.0 fold | TNFAIP3 (202644_s_at) fold change vs control (animal A60055): 2.3 fold | TNFSF6 (210865_at) fold change vs control (animal A60055): 1.9 fold | TNFSF10 (202687_s_at) fold change vs control (animal A60055): 2.9 fold | TNFSF10 (202688_at) fold change vs control (animal A60055): 2.8 fold | TRGC2 (211144_x_at) fold change vs control (animal A60055): 2.0 fold | TRGC2 (216920_s_at) fold change vs control (animal A60055): 2.4 fold | VCAM1 (203868_s_at) fold change vs control (animal A60055): 4.1 fold | XCL1 (206366_x_at) fold change vs control (animal A60055): 4.3 fold | XCL1 (214567_s_at) fold change vs control (animal A60055): 5.4 fold | XLKD1 (219059_s_at) fold change vs control (animal A60055): 1.8 fold | cig5 (213797_at) fold change vs control (animal A60055): 7.1 fold | ACE (209749_s_at) mRNA expression, Avg fold changes vs control [1]: 0.9 fold | B2M (216231_s_at) mRNA expression, Avg fold changes vs control [1]: 1.2 fold
